Laboratory results: ChEMBL document CHEMBL3885881, “DrugMatrix”

Organism: Rattus norvegicus
Assay: DrugMatrix - Regimen: Daily Repeat
Type: toxicity, organism-based, Sprague-Dawley
Parameters: regimen Daily Repeat, gender Male, age 6-8 weeks
Conditions: in vivo; for ABSOLUTE BASOPHIL / ABSOLUTE EOSINOPHIL / ABSOLUTE LYMPHOCYTE / ABSOLUTE MONOCYTE / ABSOLUTE SEGMENTED NEUTROPHIL / BASOPHIL / EOSINOPHIL / ERYTHROCYTE COUNT / HEMATOCRIT / HEMOGLOBIN / LEUKOCYTE COUNT / LYMPHOCYTE / MEAN CORPUSCULAR HEMOGLOBIN / MEAN CORPUSCULAR VOLUME / MONOCYTE / NEUTROPHIL / NUCLEATED RED BLOOD CELLS / PLATELET COUNT / MEAN CORPUSCULAR HEMOGLOBIN CONCENTRATION: tissue Blood; for ALANINE AMINOTRANSFERASE / ALBUMIN / ALKALINE PHOSPHATASE / ASPARTATE AMINOTRANSFERASE / BLOOD UREA NITROGEN / CARBON DIOXIDE / CHLORIDE / CHOLESTEROL / CREATINE PHOSPHOKINASE / CREATININE / GLUCOSE / LACTATE DEHYDROGENASE / LIPASE / PHOSPHORUS / POTASSIUM / SODIUM / TOTAL BILIRUBIN / TOTAL PROTEIN / URIC ACID: tissue Plasma
[1] = po, 0 mg/kg, 72 h, route oral GAVAGE, dose level Control, time 3 day, vehicle 100 % WATER
[2] = po, 0 mg/kg, 120 h, route oral GAVAGE, dose level Control, time 5 day, vehicle 100 % WATER
[3] = iv, 31 mg/kg, 72 h, dose level Low, time 3 day, vehicle 100 % SALINE
[4] = iv, 31 mg/kg, 120 h, dose level Low, time 5 day, vehicle 100 % SALINE

## CCCCCCCCCCCCCCCC[n+]1ccccc1.[Br-]
[1]
  ABSOLUTE BASOPHIL: 0 CELLS/uL
  ABSOLUTE EOSINOPHIL: 58.83 CELLS/uL
  ABSOLUTE LYMPHOCYTE: 11823.5 CELLS/uL
  ABSOLUTE MONOCYTE: 169 CELLS/uL
  ABSOLUTE SEGMENTED NEUTROPHIL: 815.33 CELLS/uL
  BASOPHIL: 0%
  EOSINOPHIL: 0.5%
  ERYTHROCYTE COUNT: 5.52 x10E6/uL
  HEMATOCRIT: 35.77%
  HEMOGLOBIN: 14.28 G/DL
  LEUKOCYTE COUNT: 12.87 x10E3/uL
  LYMPHOCYTE: 91.67%
  MEAN CORPUSCULAR HEMOGLOBIN: 25.92 pg
  MEAN CORPUSCULAR VOLUME: 64.85 fL
  MONOCYTE: 1.33%
  NEUTROPHIL: 6.5%
  NUCLEATED RED BLOOD CELLS: 0 /100WBC
  PLATELET COUNT: 1246.17 x10E3/uL
  ALANINE AMINOTRANSFERASE: 66 u/L
  ALBUMIN: 4.25 G/DL
  ALKALINE PHOSPHATASE: 416 u/L
  ASPARTATE AMINOTRANSFERASE: 106.17 u/L
  BLOOD UREA NITROGEN: 12.67 mg/dL
  CARBON DIOXIDE: 31.83 mmol/L
  CHLORIDE: 102.5 MEQ/L
  CHOLESTEROL: 69 mg/dL
  CREATINE PHOSPHOKINASE: 601.83 u/L
  CREATININE: 0.18 mg/dL
  GLUCOSE: 154.5 mg/dL
  LACTATE DEHYDROGENASE: 301.83 u/L
  LIPASE: 11.17 u/L
  PHOSPHORUS: 12.08 mg/dL
  POTASSIUM: 6.12 MEQ/L
  SODIUM: 145.2 MEQ/L
  TOTAL BILIRUBIN: 0.17 mg/dL
  TOTAL PROTEIN: 6.1 G/DL
  URIC ACID: 1.57 mg/dL
[2]
  ABSOLUTE BASOPHIL: 0 CELLS/uL
  ABSOLUTE EOSINOPHIL: 19.33 CELLS/uL
  ABSOLUTE LYMPHOCYTE: 12577.83 CELLS/uL
  ABSOLUTE MONOCYTE: 106.33 CELLS/uL
  ABSOLUTE SEGMENTED NEUTROPHIL: 896.5 CELLS/uL
  BASOPHIL: 0%
  EOSINOPHIL: 0.17%
  ERYTHROCYTE COUNT: 5.84 x10E6/uL
  HEMATOCRIT: 36.88%
  HEMOGLOBIN: 14.48 G/DL
  LEUKOCYTE COUNT: 13.6 x10E3/uL
  LYMPHOCYTE: 92.17%
  MEAN CORPUSCULAR HEMOGLOBIN: 24.85 pg
  MEAN CORPUSCULAR VOLUME: 63.23 fL
  MONOCYTE: 0.83%
  NEUTROPHIL: 6.83%
  NUCLEATED RED BLOOD CELLS: 0 /100WBC
  PLATELET COUNT: 1223.5 x10E3/uL
  ALANINE AMINOTRANSFERASE: 55.33 u/L
  ALBUMIN: 4.08 G/DL
  ALKALINE PHOSPHATASE: 355.5 u/L
  ASPARTATE AMINOTRANSFERASE: 87.67 u/L
  BLOOD UREA NITROGEN: 15.33 mg/dL
  CARBON DIOXIDE: 33.83 mmol/L
  CHLORIDE: 99.67 MEQ/L
  CHOLESTEROL: 72.17 mg/dL
  CREATINE PHOSPHOKINASE: 268.33 u/L
  CREATININE: 0.15 mg/dL
  GLUCOSE: 152.5 mg/dL
  LACTATE DEHYDROGENASE: 212.67 u/L
  LIPASE: 10.83 u/L
  PHOSPHORUS: 11.65 mg/dL
  POTASSIUM: 6.73 MEQ/L
  SODIUM: 142.43 MEQ/L
  TOTAL BILIRUBIN: 0.23 mg/dL
  TOTAL PROTEIN: 6.07 G/DL
  URIC ACID: 1.7 mg/dL

## Cc1cn[nH]c1 [FOMEPIZOLE]
[3]
  ABSOLUTE BASOPHIL: 0 CELLS/uL
  ABSOLUTE EOSINOPHIL: 41 CELLS/uL
  ABSOLUTE LYMPHOCYTE: 12783.33 CELLS/uL
  ABSOLUTE MONOCYTE: 137 CELLS/uL
  ABSOLUTE SEGMENTED NEUTROPHIL: 738.67 CELLS/uL
  BASOPHIL: 0%
  EOSINOPHIL: 0.33%
  ERYTHROCYTE COUNT: 5.82 x10E6/uL
  HEMATOCRIT: 35.33%
  HEMOGLOBIN: 13.87 G/DL
  LEUKOCYTE COUNT: 13.7 x10E3/uL
  LYMPHOCYTE: 93.33%
  MEAN CORPUSCULAR HEMOGLOBIN: 23.83 pg
  MEAN CORPUSCULAR HEMOGLOBIN CONCENTRATION: 39.27 G/DL
  MEAN CORPUSCULAR VOLUME: 60.67 fL
  MONOCYTE: 1%
  NEUTROPHIL: 5.33%
  NUCLEATED RED BLOOD CELLS: 0 /100WBC
  PLATELET COUNT: 1326.67 x10E3/uL
  ALANINE AMINOTRANSFERASE: 46.33 u/L
  ALBUMIN: 4.27 G/DL
  ALKALINE PHOSPHATASE: 429.67 u/L
  ASPARTATE AMINOTRANSFERASE: 79 u/L
  BLOOD UREA NITROGEN: 14.67 mg/dL
  CARBON DIOXIDE: 23.67 mmol/L
  CHLORIDE: 103.67 MEQ/L
  CHOLESTEROL: 67.67 mg/dL
  CREATINE PHOSPHOKINASE: 240.33 u/L
  CREATININE: 0.15 mg/dL
  GLUCOSE: 166.33 mg/dL
  LACTATE DEHYDROGENASE: 139.67 u/L
  LIPASE: 9.33 u/L
  PHOSPHORUS: 13.53 mg/dL
  POTASSIUM: 6.4 MEQ/L
  SODIUM: 147.03 MEQ/L
  TOTAL BILIRUBIN: 0.2 mg/dL
  TOTAL PROTEIN: 5.77 G/DL
  URIC ACID: 1.67 mg/dL
[4]
  ABSOLUTE BASOPHIL: 0 CELLS/uL
  ABSOLUTE EOSINOPHIL: 0 CELLS/uL
  ABSOLUTE LYMPHOCYTE: 17243.67 CELLS/uL
  ABSOLUTE MONOCYTE: 226 CELLS/uL
  ABSOLUTE SEGMENTED NEUTROPHIL: 1697 CELLS/uL
  BASOPHIL: 0%
  EOSINOPHIL: 0%
  ERYTHROCYTE COUNT: 5.34 x10E6/uL
  HEMATOCRIT: 34.37%
  HEMOGLOBIN: 13.8 G/DL
  LEUKOCYTE COUNT: 19.17 x10E3/uL
  LYMPHOCYTE: 89.67%
  MEAN CORPUSCULAR HEMOGLOBIN: 25.9 pg
  MEAN CORPUSCULAR HEMOGLOBIN CONCENTRATION: 40.17 G/DL
  MEAN CORPUSCULAR VOLUME: 64.4 fL
  MONOCYTE: 1.33%
  NEUTROPHIL: 9%
  NUCLEATED RED BLOOD CELLS: 0 /100WBC
  PLATELET COUNT: 1415 x10E3/uL
  ALANINE AMINOTRANSFERASE: 63.33 u/L
  ALBUMIN: 4.27 G/DL
  ALKALINE PHOSPHATASE: 350 u/L
  ASPARTATE AMINOTRANSFERASE: 91 u/L
  BLOOD UREA NITROGEN: 15.33 mg/dL
  CARBON DIOXIDE: 21.67 mmol/L
  CHLORIDE: 103.33 MEQ/L
  CHOLESTEROL: 77 mg/dL
  CREATINE PHOSPHOKINASE: 195 u/L
  CREATININE: 0.2 mg/dL
  GLUCOSE: 155.67 mg/dL
  LACTATE DEHYDROGENASE: 131 u/L
  LIPASE: 10.67 u/L
  PHOSPHORUS: 13.77 mg/dL
  POTASSIUM: 6.85 MEQ/L
  SODIUM: 145.9 MEQ/L
  TOTAL BILIRUBIN: 0.17 mg/dL
  TOTAL PROTEIN: 5.93 G/DL
  URIC ACID: 1.7 mg/dL
